From paper PMC10970924 (Life, 2024)
Like-named read-outs stand apart in the source and are kept apart here.

Key:
PC-3 = assay: Colony formation assay; assay type: cell-based; settings: Homo sapiens, PC-3, 72 h, read-out: Inhibitory concentration IC50, PC-3
Method: (§1) Cells were cultured in a 24-well plate with 1 mL of DMEM nutrient medium for 24 h. […] The experiment was conducted in triplicate and in two or three independent repetitions. Only solvent was added to the control wells instead of the test compounds. Incubation with the drugs continued for three days, after which the grown colonies were washed with cold PBS solution and fixed in a fixing buffer (10% acetic acid, 10% methanol in distilled water) for 15 min. The colonies were stained with a 0.4% solution of crystal violet in 20% ethanol for 30 min and then washed 3 times with dH2O and analyzed under a microscope. The colonies were then dissolved in 10% acetic acid for 40 min on a shaker, and the absorbance of the lysate was read at 590 nm. Results were expressed as a percentage relative to the control, and a dose–response curve was plotted to determine the IC50 value.

HCT-116 = assay: Colony formation assay; assay type: cell-based; settings: Homo sapiens, HCT-116, 72 h, read-out: Inhibitory concentration IC50, HCT-116
Method: as §1

MCF-7 = assay: Colony formation assay; assay type: cell-based; settings: Homo sapiens, MCF7, 72 h, read-out: Inhibitory concentration IC50, MCF-7
Method: as §1

[1] = test system: chicken erythrocyte genomic DNA; assay: Spectrophotometry of complexation with genomic DNA
Method: Chicken erythrocyte genomic DNA (Reanal, Budapest, Hungary) solution was prepared by dissolving 6 mg of DNA in 3 mL of Tris-EDTA (TE) buffer and allowed to stay for 2 days at a temperature of +2 °C until clear. The concentration of the initial DNA solution was measured using a nanodrop spectrophotometer (DeNovix, Wilmington, DE, USA). A series of DNA concentrations were prepared in TE buffer (60, 30, 20, 15 μg/mL). […] As a control, an equivalent amount of TE buffer in place of the genomic DNA was added to the samples. […] The results were then computed and statistically analyzed using GraphPad Prism software 8.0.1.

HCT-15 = assay: MTS cytotoxicity assay; settings: Homo sapiens, HCT-15, 72 h, read-out: Cytotoxic concentration IC50, HCT-15
From the text: The study utilized human cell lines including PC-3 (human prostate adenocarcinoma), HSF (primary human skin fibroblasts), MDA-MB-231 (estrogen-negative breast adenocarcinoma), MCF-7 (estrogen-positive breast adenocarcinoma), MSC (multipotent stem cells derived from adipose tissue), SF-539 (brain gliosarcoma), SNB-19 (glioblastoma), A-498 (kidney carcinoma), M-14 (human melanoma), NCI-H322-M (primary bronchioalveolar carcinoma), HCT-15 (colon adenocarcinoma), and HCT-116 (colorectal intestinal carcinoma). We also used immortalized C2C12 mouse myoblasts (ATCC—CRL-1772). Cancer cell lines were obtained from the ATCC collection and generously provided by the Fox Chase Cancer Center (Philadelphia, USA). Conditionally normal cells, including skin fibroblasts and multipotent stem cells, were isolated by our group from postoperative materials (skin and subcutaneous fat) obtained from a conditionally healthy donor. Reagents and consumables for cell culture work were purchased from PanEco (Russia).
The cytotoxicity of the compounds under study was assessed using MTS assay on cell cultures. Cells were seeded into 96-well plates at a concentration of 10,000–20,000 cells/mL. After 24 h, gradient concentrations of the compounds were added to the culture medium and the plates were incubated for 72 h. Subsequently, the culture medium was replaced with MTS reagents (Sigma-Aldrich, Burlington, MA, USA) (MTS:PMS (0.18:0.0092 mg/mL)) and dissolved in phenol-free RPMI 1640 medium. After 2 h of incubation, the resulting water-soluble formazan was measured using the TECAN Infinite M200 Pro microplate reader at wavelengths of 555/750 nm. As a control, equivalent volumes of the solvents in which each compound was dissolved (dH2O/DMSO) were used. To calculate the percentage of viable cells relative to the control, which was considered 100%, dose-response curves were plotted against the logarithm of the compound concentration. The concentration of the compound at which cell growth is inhibited by 50% relative to the control was taken as the inhibitory concentration IC50 and calculated using Origin Pro software 8.0.1. The study was conducted in triplicates and in three independent repetitions.

HCT-116 and MCF-7 cells = assay: Confocal microscopy of intracellular localization; assay type: cell-based, human; settings: DOX-1 and DOX-2 5 μM, 24 h; DOX 50 μM, 2 h
Method: A total of 24 h later, the studied compounds DOX-1 and DOX-2 at a concentration of 5 µM were added. Following another 24 h incubation period, Hoechst 33342 (Roche) was added, reaching a final concentration of 1.5 µg/mL. After 15 min, the dye-containing media was removed, and DBBS was added. The plate was subsequently analyzed using confocal microscopy (Zeiss LSM800, Jena, Germany).

[2] = Neutralization of the ABTS radical; settings: for EC50: 37 °C, 15 min, 738 nm, read-out: EC50 of half-maximal ABTS radical inhibition; for Trolox Equivalent Antioxidant Capacity (TEAC): ABTS radical neutralization, relative to Trolox
Method: Initially, an ABTS solution was prepared in water at a concentration of 7 mM. Subsequently, the radical cation ABTS^•+ was generated by mixing the original ABTS solution with 2.45 mM ammonium persulfate at a 1:1 ratio. This mixture was then allowed to stand in the dark at room temperature for 12–16 h before use. The diluted ABTS^•+ solution was prepared in a methanol/water mixture (1:1) reaching an optical density of 0.7 units at 738 nm (~0.7 mM). Next, various concentrations of compounds (ranging from 1000, 500, 250, 125, 62.5, 31.2, 15.6, to 7.8 μM) in a volume of 130 µL in a methanol/water mixture (1:1) were mixed with the ABTS radical cation solution (~0.7 mM) in a volume of 130 µL. The mixture was then incubated at 37 °C in a water bath for 15 min. The optical density was measured at 738 nm using the Infinite M200 PRO (TECAN, Zürich, Switzerland) plate reader. The percentage inhibition of ABTS absorption relative to the control was calculated. A percent inhibition vs. antioxidant concentration graph was plotted and the concentration of the antioxidant that suppresses the optical density of the ABTS radical by 50% (EC50) was determined. The Trolox Equivalent Antioxidant Capacity (TEAC) was also calculated.

porcine neuronal tubulin = assay: Tubulin polymerization assay (Cytoskeleton kit); assay type: biochemical; settings: effector 10 µM; for Maximum Initial Rate of Polymerization V Max: tubulin 3 mg/mL, 37 °C
Method: To assess the effect of the test compounds on tubulin polymerization, a test kit from Cytoskeleton was used. The plate was pre-warmed to 37 °C for 20 min before starting the assay. Then, 10 µL of the compound of interest, at a 10-fold concentration in an assay buffer, was pipetted into the plate. For comparison, paclitaxel, a polymerization enhancer, and vinblastine, a tubulin polymerization inhibitor, were used. Both effectors were used at a concentration of 10 µM. The assay buffer served as a control. The plate was then incubated at 37 °C for 2 min, after which 100 µL of the diluted tubulin solution (containing 3 mg/mL of tubulin in 80 mM PIPES pH 6.9, 2 mM MgCl2, 0.5 mM EGTA, 1 mM GTP, and 7% glycerol) was added. The plate was then immediately placed in the plate reader. Absorbance was measured at 340 nm every minute for 61 readings on a Varioskan LUX (Thermo Scientific, Waltham, MA, USA) plate reader.

[3] = test system: genomic DNA from chicken erythrocytes; assay: Agarose gel electrophoresis of DNA compositions; assay type: binding; settings: DNA 30 μg/mL; for Interaction with DNA (in words): 11.2 to 180 μM
Method: The mixtures were then incubated for 30 min. To visualize nucleic acids, the intercalating dye SYBR Green was added at a ratio of 1:10 to the final volume, and the mixtures were incubated in the dark for an additional 15 min. […] The electrolyte used was TAE buffer (pH 8.0).

[4] = colony formation assay, incubation three days

| SMILES | IC50 (PC-3; [4]) | IC50 (HCT-116; [4]) | IC50 (MCF-7; [4]) | Changes in the optical spectrum on interaction with genomic DNA (in words) [1] | IC50 (HCT-15) | Penetration into the cell nuclei (in words) (HCT-116 and MCF-7 cells) | EC50 [2] | Trolox Equivalent Antioxidant Capacity (TEAC) [2] | Impact on tubulin polymerization (in words) (porcine neuronal tubulin) | Maximum Initial Rate of Polymerization V Max (porcine neuronal tubulin) | Concentration sufficient to completely prevent migration of DNA ([3]; agarose gel) | IC50 (PC-3) | IC50 (HCT-116) | IC50 (MCF-7) | Shift of the Absorption Maximum Relative to Control ([1]; DNA concentration 15 µg/mL) | Shift of the Absorption Maximum Relative to Control ([1]; DNA concentration 20 µg/mL) | Shift of the Absorption Maximum Relative to Control ([1]; DNA concentration 30 µg/mL) | Shift of the Absorption Maximum Relative to Control ([1]; DNA concentration 60 µg/mL) | Interaction with DNA (in words) [3] |
| --- | --- | --- | --- | --- | --- | --- | --- | --- | --- | --- | --- | --- | --- | --- | --- | --- | --- | --- | --- |
| COc1cccc2c1C(=O)c1c(O)c3c(c(O)c1C2=O)C[C@@](O)(C(=O)CO)C[C@@H]3O[C@H]1C[C@H](N)[C@H](O)[C@H](C)O1 [DOX, Doxorubicin, reference compound] | 1170 ± 480 nM | 620 ± 140 nM | 60 ± 3 nM | significant changes | 460 ± 160 nM | efficiently permeates and accumulates in the cell nuclei | 6700 ± 700 nM | 2.34 | no statistically significant impact | 5.5 mOD/Min | 15 µM | – | – | – | – | – | – | – | – |
| COc1cccc2c1C(=O)c1c(O)c3c(c(O)c1C2=O)CC(O)(C(=O)CO)CC3OC1CC(NC(=O)c2cnc(C)c3c2COC(C)(C)O3)C(O)C(C)O1 (centres unmarked) [DOX-1, N-(3-hydroxy-2-methyl-6-((3,5,12-trihydroxy-3-(2-hydroxyacetyl)-10-methoxy-6,11-dioxo-1,2,3,4,6,11-hexahydrotetracen-1-yl)oxy)tetrahydro-2H-pyran-4-yl)-2,2,8-trimethyl-4H-[1,3]dioxino[4,5-c]pyridine-5-carboxamide] | – | – | – | no significant changes | > 100000 nM | do not penetrate the cell nuclei | 4500 ± 500 nM | 3.49 | no statistically significant impact | 5.5 mOD/Min | – | 3200 ± 310 nM | 4420 ± 3020 nM | 870 ± 120 nM | 2 nm | 1 nm | 4 nm | 2 nm | do not interact with DNA |
| COc1cccc2c1C(=O)c1c(O)c3c(c(O)c1C2=O)CC(O)(C(=O)CO)CC3OC1CC(NC(=O)/C=C/c2cnc(C)c3c2COC(C)(C)O3)C(O)C(C)O1 (centres unmarked) [DOX-2, (E)-N-(3-hydroxy-2-methyl-6-((3,5,12-trihydroxy-3-(2-hydroxyacetyl)-10-methoxy-6,11-dioxo-1,2,3,4,6,11-hexahydrotetracen-1-yl)oxy)tetrahydro-2H-pyran-4-yl)-3-(2,2,8-trimethyl-4H-[1,3]dioxino[4,5-c]pyridin-5-yl)acrylamide] | – | – | – | no significant changes | > 200000 nM | do not penetrate the cell nuclei | 18900 ± 6800 nM | 0.83 | no statistically significant impact | 6.8 mOD/Min | – | 1660 ± 820 nM | 910 ± 390 nM | 1630 ± 40 nM | 0 nm | 0 nm | 0 nm | 1 nm | do not interact with DNA |
